Results as given in patent EP4741380A1, “ISOXAZOLINE COMPOUND AND USE” (priority 2024, dated 2025).
Where two headings read alike, the source gives them in different places.

Tests used:
Borer = experiment: Killing efficacy test against agricultural pests: borer test (leaf dip); type: in vivo; conditions: after 72 h
Experimental: (§1) Solution preparation: 2 mg of a test compound was weighed and dissolved in 200 µL of acetone, and the sample was diluted with an aqueous solution containing 0.1% Tween 80 to a required concentration to obtain a test solution. 1. Diamondback moth test: The test sample was prepared into solutions with final concentrations of 0.0156 mg/L, 0.125 mg/L, and 1 mg/L. Fresh and clean rapeseed leaves were cut into small pieces of 3 cm × 3 cm. The leaf pieces were immersed in the solutions with different concentrations for 10s, taken out, and air-dried naturally. The treated leaf pieces were placed into Petri dishes lined with moistened filter paper. 20 third-instar larvae of the diamondback moth were introduced into each Petri dish. The Petri dishes were placed in a constant-temperature room, and mortality rates were checked after 72 h. 2. Aphid test: The test sample was prepared into solutions with final concentrations of 2 mg/L, 10 mg/L, and 50 mg/L. Fresh cotton leaves of uniform size were immersed in the solutions with different concentrations for 10s, air-dried, and placed backside up on culture plates. 100 wingless adult aphids were introduced into each culture plate. The culture plates were sealed with paper strips and placed in a constant-temperature room. Mortality rates were checked after 72 h. 3. Mite test: The test sample was prepared into solutions with final concentrations of 0.02 mg/L, 0.2 mg/L, and 2 mg/L. Filter paper treated with the test solutions was placed in Petri dishes, and about 30 mites were placed at the center of each Petri dish. 0.05 g of mite feed was added to the center of each Petri dish after 30 min. The Petri dishes were placed in a constant-temperature room, and mortality rates were checked after 72 h. 4. Borer test: The test sample was prepared into solutions with final concentrations of 0.125 mg/L, 0.5 mg/L, and 2 mg/L. Fresh leaves were cut, immersed in the solutions with different concentrations for 10s, taken out, and air-dried. The treated leaves were placed in Petri dishes, and 30 borer larvae were introduced into each Petri dish. The Petri dishes were placed in a constant-temperature room, and mortality rates were checked after 72 h.

Aphid = experiment: Killing efficacy test against agricultural pests: aphid test (leaf dip); type: in vivo, aphids; conditions: after 72 h
Experimental: as §1

Mite = experiment: Killing efficacy test against agricultural pests: mite test (treated filter paper); type: in vivo, mites; conditions: after 72 h
Experimental: as §1

Diamondback moth = experiment: Killing efficacy test against agricultural pests: diamondback moth test (leaf dip); type: in vivo; conditions: Plutella xylostella, foliar, read-out: Corrected Mortality Rate (%)
Experimental: as §1

[1] = In vivo pharmacokinetic evaluation in mice; design: species or system ICR mice; conditions: for AUC: read-out: AUC^1-24 h; for Vd: in vivo, read-out: Vss
Experimental: 1. Drug preparation: 5% DMSO + 10% macrogol 15 hydroxystearate (BASF) + 85% saline (where drug solutions have a final concentration of 1.2 mg/mL for the IV group and 3 mg/mL for the PO group). 2. Experimental animals: Each group included three mice (ICR mice, SPF grade). 3. Administration method: The body weight was measured before administration, and the dose was calculated according to the body weight. The mice were administered through intravenous injection or oral gavage. 4. Blood collection: After administration, blood samples were collected in 0.083 h, 0.25 h, 0.5 h, 1 h, 2 h, 4 h, 6 h, 8 h, and 24 h. The blood samples were collected via the cheek. Each sample included about 0.05 mL of blood anticoagulated with EDTA-2K. The blood samples were placed on wet ice after collection. 5. Sample treatment: The blood samples were placed on ice after collection and centrifuged within 1 h to obtain plasma (centrifugation conditions: 6000 g, 3 min, 2-8°C). Plasma samples were stored in a -80°C refrigerator before analysis. 6. Data processing: Pharmacokinetic parameters were calculated using Phoenix WinNonlin 8.2.0 based on plasma concentration data at different time points.

mites = experiment: Mite killing efficacy test with an in vitro model
Experimental: Mite collection: Live mites were gently picked up from a cage box with cotton swabs or small tweezers, 17-26 live mites per group.
Drug treatment and detection method: 100 µL of a drug solution with a different concentration (drug solution prepared by 3% DMSO solution + 97% water and having a target final concentration of 30 µM) was aspirated with a pipette and added to a 24-well plate for each group, ensuring full contact between the drug and the mites. The mites were separately incubated at normal temperature for 5 min, transferred from each plate to another dry 24-well plate with the top sealed, and air-dried for about 1 h. Mite actions were observed, and the number of dead mites/the total number of mites was recorded. Then, the 24-well plate containing the mites was cultured at room temperature and relatively high humidity. The number of dead mites/the total number of mites was counted separately after 1 h, 2 h, 4 h, 6 h, 8 h, 22 h, and 24 h (time points after drug addition), and mite mortality rates were calculated. The project ended 24 h after drug addition.
At a corresponding time point, a mite mortality rate greater than or equal to 90% is denoted as "+++", a mite mortality rate less than 90% and greater than or equal to 50% is denoted as "++", and a mite mortality rate less than 50% is denoted as "+".

[2] = ICR, mouse, IV (6 mg/kg), plasma
[3] = ICR, mouse, IV (6 mg/kg), plasma, read-out: C0
[4] = ICR, mouse, PO (30 mg/kg), plasma
[5] = ICR, mouse, PO (30 mg/kg), plasma, read-out: Cmax
[6] = ICR, mouse, PO (30 mg/kg), plasma, read-out: Tmax
[7] = ICR, mouse, plasma, PO (30 mg/kg) vs IV (6 mg/kg)
[8] = 4 h, read-out: Mite Mortality Rate 4 h
[9] = 24 h, read-out: Mite Mortality Rate 24 h
[10] = DiamondBack Moth, 0.0156 mg/L, after 72 h
[11] = DiamondBack Moth, 0.125 mg/L, after 72 h
[12] = DiamondBack Moth, 1 mg/L, after 72 h
[13] = 30 µM drug solution, 4 h after drug addition, read-out: Mite Mortality Rate 4 h
[14] = 30 µM drug solution, 24 h after drug addition, read-out: Mite Mortality Rate 24 h

Structure (SMILES) | Corrected Mortality Rate (%) (Borer; 0.125 mg/L) | Corrected Mortality Rate (%) (Borer; 0.5 mg/L) | Corrected Mortality Rate (%) (Borer; 2 mg/L) | Corrected Mortality Rate (%) (Aphid; 2 mg/L) | Corrected Mortality Rate (%) (Aphid; 10 mg/L) | Corrected Mortality Rate (%) (Aphid; 50 mg/L) | Corrected Mortality Rate (%) (Mite; 0.02 mg/L) | Corrected Mortality Rate (%) (Mite; 0.2 mg/L) | Corrected Mortality Rate (%) (Mite; 2 mg/L) | clearance [1, 2] [mL/min/kg] | half-life [1, 2] [h] | AUC [1, 2] [ng·h/mL] | C0 [1, 3] [ng/mL] | half-life [1, 4] [h] | AUC [1, 4] [ng·h/mL] | Cmax [1, 5] [ng/mL] | Tmax [1, 6] [h] | Vd [1, 2] [L/kg] | bioavailability [1, 7] [%] | mortality at 30 µM (mites; [8]) [%] | other results
Cc1cc(C2=NO[C@@](c3cc(Cl)cc(C(F)(F)F)c3)(C(F)(F)F)C2)ccc1C(=O)NCC(=O)NC1(C(F)(F)F)CC1 [Example 008, (S)-4-(5-(3-chloro-5-(trifluoromethyl)phenyl)-5-(trifluoromethyl)-4,5-dihydroisoxazol-3-yl)-2-m ethyl-N-(2-oxo-2-((1-(trifluoromethyl)cyclopropyl)amino)ethyl)benzamide] | 2 | 82 | 100 | 86 | 100 | 100 | 62 | 92 | 100 | 0.713 | 37.6 | 56100 | 10300 | 31.6 | 233000 | 15300 | 9.33 | 1.93 | 83.1 | > 90 | mortality at 0.0156 µg/mL (Diamondback moth; 72 h): 5%; mortality at 0.125 µg/mL (Diamondback moth; 72 h): 100%; mortality at 1 µg/mL (Diamondback moth; 72 h): 100%; mortality at 30 µM (mites; [9]): > 90%
Cc1cc(C2=NOC(c3cc(Cl)c(Cl)c(C(F)(F)F)c3)(C(F)(F)F)C2)ccc1C(=O)NCC(=O)NC1(C(F)(F)F)CC1 (stereo not shown) [Example 029, 4-(5-(3,4-dichloro-5-(trifluoromethyl)phenyl)-5-(trifluoromethyl)-4,5-dihydroisoxazol-3-yl)-2-m ethyl-N-(2-oxo-2-((1-(trifluoromethyl)cyclopropyl)amino)ethyl)benzamide] | 0 | 50 | 100 | 5 | 100 | 100 | 54 | 70 | 100 | – | – | – | – | – | – | – | – | – | – | – | mortality at 0.0156 µg/mL (Diamondback moth; [10]): 0%; mortality at 0.125 µg/mL (Diamondback moth; [11]): 79%; mortality at 1 µg/mL (Diamondback moth; [12]): 100%; mortality at 30 µM (mites; [13]): > 90%; mortality at 30 µM (mites; [14]): > 90%
Cc1cc(C2=NOC(c3cc(C(F)(F)F)cc(C(F)(F)F)c3)(C(F)(F)F)C2)ccc1C(=O)NCC(=O)NC1(C(F)(F)F)CC1 (stereo not shown) [Example 030, 4-(5-(3,5-bis(trifluoromethyl)phenyl)-5-(trifluoromethyl)-4,5-dihydroisoxazol-3-yl)-2-methyl-N-(2-oxo-2-((1-(trifluoromethyl)cyclopropyl)amino)ethyl)benzamide] | 30 | 100 | 100 | 22 | 86 | 100 | 34 | 66 | 96 | – | – | – | – | – | – | – | – | – | – | – | mortality at 0.0156 µg/mL (Diamondback moth; [10]): 16%; mortality at 0.125 µg/mL (Diamondback moth; [11]): 63%; mortality at 1 µg/mL (Diamondback moth; [12]): 100%; mortality at 30 µM (mites; [13]): > 90%; mortality at 30 µM (mites; [14]): > 90%
Cc1cc(C2=NOC(c3cc(Cl)cc(Cl)c3)(C(F)(F)F)C2)ccc1C(=O)NCC(=O)NC1CC1 (stereo not shown) [Example 39 (Comparative Example 1), N-(2-(cyclopropylamino)-2-oxoethyl)-4-(5-(3,5-dichlorophenyl)-5-(trifluoromethyl)-4,5-dihydroisoxazol-3-yl)-2-methylbenzamide, reference compound] | – | – | – | – | – | – | – | – | – | 2.06 | 12.3 | 37100 | 7800 | 11.8 | 173000 | 12300 | 3.33 | 1.97 | 93.1 | > 90 | mortality at 30 µM (mites; [9]): > 90%
Cc1cc(C2=NOC(c3cc(Cl)cc(Cl)c3)(C(F)(F)F)C2)ccc1C(=O)NCC(=O)NCC(F)(F)F (stereo not shown) [Fluralaner, fluralaner, reference compound] | – | – | – | – | – | – | – | – | – | – | – | – | – | – | – | – | – | – | – | – | AUC^1-24 h ([1]; IV (6 mg/kg), plasma): 22972 ng·h/mL; C0 ([1]; IV (6 mg/kg), plasma): 7151 ng/mL; CL ([1]; IV (6 mg/kg), plasma): 3.49 mL/min/kg; T1/2 ([1]; IV (6 mg/kg), plasma): 11.9 h; Vss ([1]; IV (6 mg/kg), plasma): 2.87 L/kg; F (%) ([1]; PO (30 mg/kg) vs IV (6 mg/kg)): 81.42%; AUC^1-24 h ([1]; PO (30 mg/kg), plasma): 93520 ng·h/mL; Cmax ([1]; PO (30 mg/kg), plasma): 8000 ng/mL; T1/2 ([1]; PO (30 mg/kg), plasma): 15.2 h; Tmax ([1]; PO (30 mg/kg), plasma): 1.67 h; Mite Mortality Rate 4 h (mites; 30 µM drug solution, 4 h after drug addition): +++ (a mite mortality rate greater than or equal to 90% is denoted as "+++"); Mite Mortality Rate 24 h (mites; 30 µM drug solution, 24 h after drug addition): +++ (a mite mortality rate greater than or equal to 90% is denoted as "+++")
